According to patent publication US11249161B2, “Magnetic resonance method for detecting molecular binding with enhanced sensitivity” (The Johns Hopkins University, priority 2017, dated 2022):

Legend:
mouse brain = experiment: In vivo IMMOBILISE MRI in mice after caffeine infusion
Method: All experiments were performed in accordance with Institutional Animal Care and Use Committee guidelines and approved by the Johns Hopkins University Animal Care and Use Committee. Eight 6-8 week old female BALB/c mice, were anesthetized by isoflurane and kept warm with a heating pad and kept in place with a stereotactic holder. […] A home-built catheter was connected to a syringe infusion through PE-50 tubing.
MRI experiments were acquired on a 11.7 T Bruker Biospec preclinical scanner (Bruker, Ettlingen, Germany) equipped with a 72 mm quadrature volume resonator for RF transmission and a 2×2 mouse phased array coil for RF reception. The saturation preparation consisted of a 3 s, 0.5 μT CW saturation pulse followed by a two-shot FSE readout. The FSE readout parameters were TR/TE=6000/4 ms, a 64×64 acquisition matrix across a field of view of 17×17 mm and slice thickness of 1 mm. […] Acquisition of each partial Z-spectra took 105 s and was continued for 1-hour post bolus and then a complete Z-spectrum was again acquired.
(§1) Maps were generated by mapping the signal difference (pre minus post infusion) between the partial spectra (−1.0 to −2.0 ppm). Field correction for static field (B0) inhomogeneities was done by creating field maps from the low power Z-spectra acquired in our study and shifting the Z-spectra voxel wise according to the WASSR method^27.

[1] = molecular target: bovine serum albumin (BSA) (Bos taurus, UniProt P02769)
From the text: as §1

Sequence of bovine serum albumin (BSA) (P02769 25-607): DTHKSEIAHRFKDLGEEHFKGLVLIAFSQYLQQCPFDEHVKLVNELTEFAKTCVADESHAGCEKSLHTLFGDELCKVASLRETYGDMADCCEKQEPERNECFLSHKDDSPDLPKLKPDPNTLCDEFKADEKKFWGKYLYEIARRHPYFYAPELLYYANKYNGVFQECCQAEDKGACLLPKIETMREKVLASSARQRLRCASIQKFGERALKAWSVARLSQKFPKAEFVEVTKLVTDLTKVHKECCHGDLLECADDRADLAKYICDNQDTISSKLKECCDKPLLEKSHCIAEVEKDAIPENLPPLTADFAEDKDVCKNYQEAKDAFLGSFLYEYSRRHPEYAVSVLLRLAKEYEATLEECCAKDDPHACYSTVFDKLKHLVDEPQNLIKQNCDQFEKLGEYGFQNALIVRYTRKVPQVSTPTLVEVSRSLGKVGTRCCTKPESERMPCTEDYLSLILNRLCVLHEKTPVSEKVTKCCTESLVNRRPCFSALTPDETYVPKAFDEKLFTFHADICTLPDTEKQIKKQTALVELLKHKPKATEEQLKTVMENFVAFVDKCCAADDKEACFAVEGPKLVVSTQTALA

Compound: Cn1c(=O)c2c(ncn2C)n(C)c1=O [caffeine]
- concentration of caffeine in mouse blood (estimate) (mouse brain; 2 mL blood, 50 μL of 100 mM caffeine infused): about 2.5 mM
- change in water signal (detection sensitivity) (mouse brain; mice, after caffeine infusion, about 2.5 mM in blood): 1-3%
- factor of enhancement (mouse brain; mice, in vivo): 30-100
- factor in sensitivity enhancement [1]: ~1000
